The pKi is −log10 of the Ki, conventionally taken in molar units. A word on the inhibition: it is the relative decrease from the control value, in per cent.

Data set [1] addresses 5-hydroxytryptamine receptor 6 (Homo sapiens, UniProt P50406). The experiment in a line: GPCRScan assay: inhibition of 5-HT6. More on the design: radioligand conc. used [nm] 2.0 – 4.0, parental cells stable HEK.
Data set [2] in a line: GPCRScan assay: inhibition of GABA/PBR. More on the design: species or system Rattus norvegicus; radioligand conc. used [nm] 0.3 – 2.0, parental cells brain tissue.
The target in data set [3] is T1, 5-hydroxytryptamine receptor 1A (Homo sapiens) (UniProt P08908).
T1 sequence (whole entry): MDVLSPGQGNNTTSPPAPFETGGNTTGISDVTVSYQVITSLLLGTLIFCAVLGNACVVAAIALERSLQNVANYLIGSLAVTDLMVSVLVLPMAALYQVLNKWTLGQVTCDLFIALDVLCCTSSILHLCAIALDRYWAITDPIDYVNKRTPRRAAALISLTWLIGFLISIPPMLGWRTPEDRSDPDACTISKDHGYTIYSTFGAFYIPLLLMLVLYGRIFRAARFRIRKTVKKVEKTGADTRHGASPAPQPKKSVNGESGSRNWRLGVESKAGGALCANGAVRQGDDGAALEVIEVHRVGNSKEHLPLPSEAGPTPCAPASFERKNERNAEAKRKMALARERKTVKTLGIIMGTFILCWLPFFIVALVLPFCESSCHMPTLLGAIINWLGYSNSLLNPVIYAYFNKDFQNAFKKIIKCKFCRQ
Conditions: Compound concentration 10.0 uM.

The target in data set [4] is 5-hydroxytryptamine receptor 2A (Homo sapiens) (UniProt P28223). Conditions: Compound concentration 10.0 uM.
Chain of 5-hydroxytryptamine receptor 2A (Homo sapiens) (P28223 whole entry): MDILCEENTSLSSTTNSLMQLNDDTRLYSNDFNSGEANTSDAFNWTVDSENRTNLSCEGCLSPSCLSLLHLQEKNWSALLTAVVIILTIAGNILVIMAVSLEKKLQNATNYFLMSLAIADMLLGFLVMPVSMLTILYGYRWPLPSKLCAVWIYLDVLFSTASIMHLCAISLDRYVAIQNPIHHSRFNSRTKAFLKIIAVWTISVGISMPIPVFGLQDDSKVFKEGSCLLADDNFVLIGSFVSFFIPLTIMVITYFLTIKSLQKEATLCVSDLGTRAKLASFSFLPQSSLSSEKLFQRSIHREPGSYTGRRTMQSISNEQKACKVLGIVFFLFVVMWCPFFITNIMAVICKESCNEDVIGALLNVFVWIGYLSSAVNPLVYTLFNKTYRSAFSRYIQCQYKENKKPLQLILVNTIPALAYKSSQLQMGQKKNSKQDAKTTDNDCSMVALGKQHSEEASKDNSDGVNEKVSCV
For data set [5], the target named is D(1A) dopamine receptor (Homo sapiens) (UniProt P21728). As to conditions: Compound concentration 10.0 uM.
Chain of D(1A) dopamine receptor (Homo sapiens) (P21728 whole entry): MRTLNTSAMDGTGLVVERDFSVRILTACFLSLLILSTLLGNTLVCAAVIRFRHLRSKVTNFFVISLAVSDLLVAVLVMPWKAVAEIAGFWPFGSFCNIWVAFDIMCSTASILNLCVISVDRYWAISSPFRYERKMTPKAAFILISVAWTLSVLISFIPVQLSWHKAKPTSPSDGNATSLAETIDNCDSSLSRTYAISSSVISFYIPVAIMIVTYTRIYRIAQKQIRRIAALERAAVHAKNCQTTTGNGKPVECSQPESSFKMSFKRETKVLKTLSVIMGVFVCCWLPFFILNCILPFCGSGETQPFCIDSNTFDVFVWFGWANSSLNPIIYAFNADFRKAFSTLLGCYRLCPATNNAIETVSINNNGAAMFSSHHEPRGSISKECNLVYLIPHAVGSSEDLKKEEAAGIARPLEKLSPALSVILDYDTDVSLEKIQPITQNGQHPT
Data set [6] concerns the target Sodium-dependent dopamine transporter (Homo sapiens, UniProt Q01959). As to conditions: Compound concentration 10.0 uM.
Data set [7] concerns the target Kappa-type opioid receptor (Homo sapiens) (UniProt P41145). As to conditions: Compound concentration 10.0 uM.
The target in data set [8] is Alpha-1A adrenergic receptor (Homo sapiens) (UniProt P35348). Conditions: Compound concentration 10.0 uM.
Chain of Alpha-1A adrenergic receptor (Homo sapiens) (P35348 whole entry): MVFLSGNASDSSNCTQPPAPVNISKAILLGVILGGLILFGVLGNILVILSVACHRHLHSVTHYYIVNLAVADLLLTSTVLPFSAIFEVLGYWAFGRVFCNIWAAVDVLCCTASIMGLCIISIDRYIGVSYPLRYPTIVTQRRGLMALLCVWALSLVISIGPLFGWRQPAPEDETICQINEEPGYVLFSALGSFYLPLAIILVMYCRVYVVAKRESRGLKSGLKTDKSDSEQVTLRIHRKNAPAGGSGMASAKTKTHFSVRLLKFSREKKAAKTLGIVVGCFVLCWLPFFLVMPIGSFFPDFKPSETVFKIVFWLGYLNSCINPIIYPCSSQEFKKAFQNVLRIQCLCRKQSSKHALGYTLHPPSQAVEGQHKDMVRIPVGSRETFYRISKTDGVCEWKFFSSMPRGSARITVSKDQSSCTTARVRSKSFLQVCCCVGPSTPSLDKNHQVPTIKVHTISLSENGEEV
Data set [9] addresses Alpha-1B adrenergic receptor (Homo sapiens) (UniProt P35368). As to conditions: Compound concentration 10.0 uM.
In data set [10] the target is Alpha-2B adrenergic receptor (Homo sapiens) (UniProt P18089). As to conditions: Compound concentration 10.0 uM.
Chain of Alpha-2B adrenergic receptor (Homo sapiens) (P18089 whole entry): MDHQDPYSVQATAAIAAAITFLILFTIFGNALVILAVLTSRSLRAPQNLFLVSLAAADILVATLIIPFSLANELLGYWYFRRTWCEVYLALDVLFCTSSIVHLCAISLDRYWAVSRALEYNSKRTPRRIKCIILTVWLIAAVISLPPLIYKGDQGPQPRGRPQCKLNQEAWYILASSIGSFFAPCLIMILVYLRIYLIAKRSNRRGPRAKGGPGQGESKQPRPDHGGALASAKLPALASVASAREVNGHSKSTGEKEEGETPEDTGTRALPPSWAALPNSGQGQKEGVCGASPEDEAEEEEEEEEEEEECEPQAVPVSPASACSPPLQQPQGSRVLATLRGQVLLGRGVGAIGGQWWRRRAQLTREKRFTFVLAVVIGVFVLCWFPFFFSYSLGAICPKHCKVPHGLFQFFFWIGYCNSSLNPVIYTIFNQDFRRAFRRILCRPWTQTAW
For data set [11], the target named is T2, Muscarinic acetylcholine receptor M1 (Homo sapiens) (UniProt P11229).
T2 sequence (whole entry): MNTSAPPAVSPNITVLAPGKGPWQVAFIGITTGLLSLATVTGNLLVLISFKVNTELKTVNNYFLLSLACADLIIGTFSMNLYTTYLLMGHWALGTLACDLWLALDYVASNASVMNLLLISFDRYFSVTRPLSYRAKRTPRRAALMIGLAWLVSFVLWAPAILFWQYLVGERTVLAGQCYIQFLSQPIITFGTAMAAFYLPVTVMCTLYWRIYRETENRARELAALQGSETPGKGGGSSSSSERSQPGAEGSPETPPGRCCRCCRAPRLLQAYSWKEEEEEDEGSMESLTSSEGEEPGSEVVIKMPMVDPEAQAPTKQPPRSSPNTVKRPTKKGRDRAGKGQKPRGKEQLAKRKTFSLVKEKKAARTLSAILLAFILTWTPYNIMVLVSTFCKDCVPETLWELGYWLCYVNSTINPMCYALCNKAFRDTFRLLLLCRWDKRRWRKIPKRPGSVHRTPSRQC
As to conditions: Compound concentration 10.0 uM.

In data set [12] the target is Alpha-1D adrenergic receptor (Homo sapiens) (UniProt P25100). Conditions: Compound concentration 10.0 uM.
Chain of Alpha-1D adrenergic receptor (Homo sapiens) (P25100 whole entry): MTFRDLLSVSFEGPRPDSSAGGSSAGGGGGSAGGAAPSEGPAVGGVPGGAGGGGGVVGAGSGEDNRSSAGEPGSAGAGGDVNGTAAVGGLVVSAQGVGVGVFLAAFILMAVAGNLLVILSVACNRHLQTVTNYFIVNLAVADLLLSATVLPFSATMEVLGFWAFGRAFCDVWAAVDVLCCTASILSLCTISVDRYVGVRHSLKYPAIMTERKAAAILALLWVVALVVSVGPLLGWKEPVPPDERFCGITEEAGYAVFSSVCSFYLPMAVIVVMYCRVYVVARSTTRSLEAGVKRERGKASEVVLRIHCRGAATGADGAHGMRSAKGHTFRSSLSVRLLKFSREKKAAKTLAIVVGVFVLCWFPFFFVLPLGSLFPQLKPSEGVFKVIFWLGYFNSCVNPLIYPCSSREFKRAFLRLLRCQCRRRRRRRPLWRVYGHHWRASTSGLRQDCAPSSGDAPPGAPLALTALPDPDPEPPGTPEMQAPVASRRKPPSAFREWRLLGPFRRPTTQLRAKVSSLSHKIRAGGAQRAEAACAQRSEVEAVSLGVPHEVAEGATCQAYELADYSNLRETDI
Data set [13] deals with Type-1 angiotensin II receptor (Homo sapiens) (UniProt P30556). Description: AT1 (h) Eurofins-Cerep binding assay. As to conditions: filed as antagonist, Compound concentration 10.0 uM. On the set-up: ligand concentration 0.05 nM.
Data set [14] deals with D(2) dopamine receptor (Homo sapiens) (UniProt P14416). The experiment in a line: D2S (h) Eurofins-Cerep binding assay. More on the design: ligand concentration 0.3 nM. Conditions: filed as antagonist, Compound concentration 10.0 uM.
Data set [15] has as its target Histamine H2 receptor (Homo sapiens) (UniProt P25021). Description: H2 (h) Eurofins-Cerep binding assay. As to conditions: filed as antagonist, Compound concentration 10.0 uM. More on the design: ligand concentration 0.075 nM.
Data set [16] has as its target Substance-K receptor (Homo sapiens) (UniProt P21452). Description: NK2 (h) Eurofins-Cerep binding assay. More on the design: ligand concentration 0.1 nM. As to conditions: filed as agonist, Compound concentration 10.0 uM.
Data set [17] concerns the target 5-hydroxytryptamine receptor 1B (Homo sapiens) (UniProt P28222). Description: 5-HT1B(h) Eurofins-Cerep binding assay. More on the design: ligand concentration 1 nM. As to conditions: filed as antagonist, Compound concentration 10.0 uM.
The target in data set [18] is T3, 5-hydroxytryptamine receptor 3A (Homo sapiens) (UniProt P46098).
T3 sequence (whole entry): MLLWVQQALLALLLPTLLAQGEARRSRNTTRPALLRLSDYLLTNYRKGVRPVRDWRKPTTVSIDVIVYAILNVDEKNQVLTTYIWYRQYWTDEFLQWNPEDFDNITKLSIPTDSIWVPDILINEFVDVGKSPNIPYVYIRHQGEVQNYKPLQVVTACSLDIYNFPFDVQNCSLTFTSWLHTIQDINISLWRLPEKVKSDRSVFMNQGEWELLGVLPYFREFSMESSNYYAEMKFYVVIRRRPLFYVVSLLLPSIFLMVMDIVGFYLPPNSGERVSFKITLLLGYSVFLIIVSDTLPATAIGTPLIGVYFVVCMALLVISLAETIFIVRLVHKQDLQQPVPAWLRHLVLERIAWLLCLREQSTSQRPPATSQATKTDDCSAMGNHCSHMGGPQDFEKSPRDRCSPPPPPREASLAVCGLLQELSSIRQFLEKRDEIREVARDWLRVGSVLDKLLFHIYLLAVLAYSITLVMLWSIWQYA
Description: 5-HT3 (h) Eurofins-Cerep binding assay. More on the design: ligand concentration 0.5 nM. As to conditions: filed as antagonist, Compound concentration 10.0 uM.

For data set [19], the target named is Vasoactive intestinal polypeptide receptor 1 (Homo sapiens) (UniProt P32241). The experiment in a line: VPAC1 (VIP1) (h) Eurofins-Cerep binding assay. As to conditions: filed as agonist, Compound concentration 10.0 uM. On the set-up: ligand concentration 0.04 nM.
Data set [20] deals with L-type Ca2+ channel (diltiazem site, benzothiazepines) (Rattus norvegicus, UniProt P22002+P27732+Q02485). The experiment in a line: Ca2+ channel (L, diltiazem site) (benzothiazepines) Eurofins-Cerep binding assay. Type of data set: protein assay. On the set-up: incubation time 120 min, incubation temperature RT, ligand concentration 15 nM. As to conditions: rat cerebral cortex, probe [3H]diltiazem, compound concentration 10 uM, read-out: % Inhibition of Control Specific Binding (Mean n=2).

In data set [21] the target is L-type Ca2+ channel (verapamil site, phenylalkylamine) (Rattus norvegicus, UniProt P22002+P27732+Q02485). Description: Ca2+ channel (L, verapamil site) (phenylalkylamine) Eurofins-Cerep binding assay. Type of data set: protein assay. More on the design: incubation time 120 min, incubation temperature RT, ligand concentration 3 nM. As to conditions: rat cerebral cortex, probe [3H]D888, compound concentration 10 uM, read-out: % Inhibition of Control Specific Binding (Mean n=2).

In data set [22] the target is GABA-A receptor; anion channel (Rattus norvegicus) (UniProt O09028+P15431+P18506+P18508+P19969+P20236+P23574+P23576+P28471+P28473+P30191+P62813+P63079+P63138+Q91ZM7+Q9ES14). Description: Cl- channel (GABA-gated) Eurofins-Cerep binding assay. It counts as protein-complex assay. On the set-up: ligand concentration 3 nM. Conditions: filed as antagonist, Compound concentration 10.0 uM.

The target in data set [23] is Sodium-dependent noradrenaline transporter (Homo sapiens) (UniProt P23975). Description: norepinephrine transporter (h) Eurofins-Cerep binding assay. On the set-up: ligand concentration 1 nM. Conditions: filed as antagonist, Compound concentration 10.0 uM.
The target in data set [24] is Histamine H2 receptor (Homo sapiens) (UniProt P25021). As to conditions: Compound concentration 10.0 uM.
Chain of Histamine H2 receptor (Homo sapiens) (P25021 whole entry): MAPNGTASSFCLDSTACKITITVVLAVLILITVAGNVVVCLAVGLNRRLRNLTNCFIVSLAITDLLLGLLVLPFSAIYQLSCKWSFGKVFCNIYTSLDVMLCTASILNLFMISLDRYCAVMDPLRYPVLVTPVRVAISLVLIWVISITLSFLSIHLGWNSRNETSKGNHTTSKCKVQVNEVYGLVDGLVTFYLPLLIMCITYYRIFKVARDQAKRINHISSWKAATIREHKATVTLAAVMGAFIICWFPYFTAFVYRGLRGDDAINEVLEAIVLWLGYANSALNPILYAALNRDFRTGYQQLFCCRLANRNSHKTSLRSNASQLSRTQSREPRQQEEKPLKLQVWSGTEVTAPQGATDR

Each structure is given as a SMILES string.

Chain of Sodium-dependent dopamine transporter (Q01959 whole entry): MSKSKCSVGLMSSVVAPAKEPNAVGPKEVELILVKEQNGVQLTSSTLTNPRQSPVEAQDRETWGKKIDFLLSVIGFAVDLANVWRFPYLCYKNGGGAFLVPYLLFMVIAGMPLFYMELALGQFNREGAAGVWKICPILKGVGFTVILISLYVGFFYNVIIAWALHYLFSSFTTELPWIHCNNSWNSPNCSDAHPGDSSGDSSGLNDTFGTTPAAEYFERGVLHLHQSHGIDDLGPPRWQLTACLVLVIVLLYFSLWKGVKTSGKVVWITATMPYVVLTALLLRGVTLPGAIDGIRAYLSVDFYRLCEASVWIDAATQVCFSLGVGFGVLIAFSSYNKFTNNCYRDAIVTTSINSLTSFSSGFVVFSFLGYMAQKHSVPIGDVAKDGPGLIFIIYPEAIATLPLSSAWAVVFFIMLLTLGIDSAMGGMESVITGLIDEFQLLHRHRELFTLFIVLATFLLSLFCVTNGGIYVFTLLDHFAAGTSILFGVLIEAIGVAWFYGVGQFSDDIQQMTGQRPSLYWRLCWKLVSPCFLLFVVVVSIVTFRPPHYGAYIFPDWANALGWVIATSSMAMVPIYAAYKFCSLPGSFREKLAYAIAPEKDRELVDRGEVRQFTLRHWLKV
Chain of Alpha-1B adrenergic receptor (Homo sapiens) (P35368 whole entry): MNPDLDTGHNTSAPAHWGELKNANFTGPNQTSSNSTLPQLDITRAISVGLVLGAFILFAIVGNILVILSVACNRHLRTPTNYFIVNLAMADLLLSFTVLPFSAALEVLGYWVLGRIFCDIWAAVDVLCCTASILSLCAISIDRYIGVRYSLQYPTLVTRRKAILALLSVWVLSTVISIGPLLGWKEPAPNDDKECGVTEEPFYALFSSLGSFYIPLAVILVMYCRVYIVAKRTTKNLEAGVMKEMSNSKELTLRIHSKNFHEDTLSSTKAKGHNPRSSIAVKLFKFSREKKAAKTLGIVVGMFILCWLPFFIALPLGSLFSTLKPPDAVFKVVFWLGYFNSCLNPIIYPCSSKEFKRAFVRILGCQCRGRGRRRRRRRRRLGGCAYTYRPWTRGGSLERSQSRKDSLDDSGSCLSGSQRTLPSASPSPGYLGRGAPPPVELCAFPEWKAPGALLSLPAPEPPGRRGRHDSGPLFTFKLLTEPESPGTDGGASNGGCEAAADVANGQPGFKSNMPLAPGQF
Chain of 5-hydroxytryptamine receptor 6 (P50406 whole entry): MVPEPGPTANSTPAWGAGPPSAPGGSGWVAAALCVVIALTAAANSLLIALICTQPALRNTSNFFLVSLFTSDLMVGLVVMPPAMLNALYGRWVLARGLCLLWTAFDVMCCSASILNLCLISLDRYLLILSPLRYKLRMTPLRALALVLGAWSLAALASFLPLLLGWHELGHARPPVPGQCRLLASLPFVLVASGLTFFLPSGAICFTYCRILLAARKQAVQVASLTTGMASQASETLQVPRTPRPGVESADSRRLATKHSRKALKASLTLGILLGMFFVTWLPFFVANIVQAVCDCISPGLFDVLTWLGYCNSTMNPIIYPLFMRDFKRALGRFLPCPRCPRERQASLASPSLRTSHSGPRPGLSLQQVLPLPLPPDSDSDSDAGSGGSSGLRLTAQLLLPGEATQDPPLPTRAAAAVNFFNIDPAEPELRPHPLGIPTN
Chain of 5-hydroxytryptamine receptor 1B (Homo sapiens) (P28222 whole entry): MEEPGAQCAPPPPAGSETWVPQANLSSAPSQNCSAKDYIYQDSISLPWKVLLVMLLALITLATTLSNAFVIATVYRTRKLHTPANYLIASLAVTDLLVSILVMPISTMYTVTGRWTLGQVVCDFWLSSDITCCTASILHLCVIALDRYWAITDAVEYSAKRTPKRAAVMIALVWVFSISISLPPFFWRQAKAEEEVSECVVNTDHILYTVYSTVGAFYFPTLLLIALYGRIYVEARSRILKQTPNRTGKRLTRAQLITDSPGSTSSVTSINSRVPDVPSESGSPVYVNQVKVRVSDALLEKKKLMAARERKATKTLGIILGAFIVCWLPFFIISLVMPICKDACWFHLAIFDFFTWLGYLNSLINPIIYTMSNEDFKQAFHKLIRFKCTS

Turning to `COc1cc(C(=O)O)ncc1C#Cc1ccccc1NS(=O)(=O)c1cccc2c(N(C)C)ccnc12` [MSC-0516], the Ki in [1] (read-out: Ki) is 1520 nM; in [1] (read-out: pKi (converted)), 1450 nM; in data set [2], 734 nM. For the same molecule, the pKi in data set [2] worked out at 6.14. Moreover, the inhibition in data set [3] was 40.2%; in data set [4], 9.61%; in data set [5], 17.8%; in data set [6] it was 80.3%; in data set [7], 11%; in [8], 13.7%. The inhibition in data set [9] is 16.9%; in data set [10], 8.34%; in data set [11], 25%; in data set [12] it was 1.48%.

As for `CCOc1ccc(S(=O)(=O)Nc2ccc(Cl)cc2C#Cc2cnc(C(=O)O)cc2OC)c2ncccc12` [MSC-4381], the % Inhibition of Control Specific Binding (Mean n=2) was 4.2% in data set [13]; 9.2% in [14]; -16.1% in data set [15]; 46% in data set [16]; -15.6% in data set [17]; -8% in data set [18]. In addition, the % Inhibition of Control Specific Binding (Mean n=2) in [19] is -3.2%; in data set [22], 59.9%; in data set [23], 30.4%. Besides, the inhibition at 120 min, 10 µM in data set [20] is -8.8%; in [21] it was -9.8%. For the same molecule, the inhibition in data set [3] is 18.6%; in data set [4], -0.22%; in data set [5], 8.58%; in [6], 23.4%; in [24] it was 24.2%; in data set [8], 13.3%. Also, the inhibition in data set [9] is -9.4%; in data set [10] it was 15%; in data set [11] it was 16.3%; in [12], 20.8%.

For the origin of these results see ChEMBL document CHEMBL4800726, “Data for DCP probe MSC-4381” (2021).
